We go through one substance from patent publication US20220089661A1 (priority 2019, published 2022).

Common to all, as to format: cell-based
Assay [1] deals with Botrytis cinerea.
Assay [2] deals with Fusarium graminearum.
Assay [3] concerns Botrytis cinerea. The source holds these as a separate data set.
For assay [4], the system named is Fusarium graminearum. The source holds these as a separate data set.

pIC50: −log10 of the molar value. Values joined by “and” are separate entries in the source; they are usually repeats but may differ in a detail not shown here. Equal values may be shown once.

Take “OeDef7 (RICESLSHRFKGPCVRRGNCAAVCQTEGFPGGLCRGFRRRCFCTKHC; listed as Olea europaea)”: the pIC50 (usually the negative decadic logarithm of the IC50, by convention in mol/L) in the assay with Botrytis cinerea [1] was 5.52 to 5.70 and 5.40 to 5.52; in the assay with Fusarium graminearum [2] it was 5.82 to 6.00 and 5.52 to 5.70. Moreover, the MLC was 4 µM and 6 µM with Botrytis cinerea [3]; 3 µM and 6 µM in the assay on Fusarium graminearum [4].
